Data: US20130289089A1, “Pharmaceutical Compositions for Topical Delivery of Photosensitizers and Uses Thereof” (priority 2011, published 2013)

Assays:
Format in all cases: physicochemical
[1] = Stability of supersaturated/reconstituted lemuteporfin solutions up to 4 hours (filtered, HPLC); details: up to 4 hours post-reconstitution
Experimental: Samples of the compositions are taken at various time points after combining the photosensitizing component and the excipient component. Half of the samples are filtered to remove any precipitates, for example through a 0.22 μm filter. The filtered solutions are analyzed, for example, using HPLC, for the content or concentration of photosensitizer. If the solution is stable, and no photosensitizer has precipitated out, then the concentration of photosensitizer in the filtered solution should be roughly the same as the concentration of photosensitizer in the unfiltered solution, within experimental error.
Three formulations (Batches C (Table 8), D (Table 9) and H (Table 10)) in which the Vial 1 photosensitizer component consisted of benzyl alcohol and lemuteporfin at three lemuteporfin concentrations, 0.1, 0.075 and 0.05% w/w in the final combined LTS solution were examined for stability after reconstitution with the remaining excipients in Vial 2.
Vial 2 contents were added to vial 1 for each formulation, mixed and sampled at time 0 and 4 hours after reconstitution. The samples were filtered through a 0.22 μm filter before analysis by HPLC. This analysis was performed to ensure that the combined product had adequate stability and would not precipitate before administration to a subject. […]

[2] = Solubility of lemuteporfin in various solvents (HPLC analysis)
Text: The solubility of lemuteporfin in various solvent compositions is shown in the last column of Table 2. All values were obtained analytically by HPLC analysis.
Solubility results for lemuteporfin indicated maximum solubility in solvent-based formulations containing primarily benzyl alcohol. […] The addition of other solvents reduced solubility by approximately the amount of the new solvent introduced. Diethylene glycol monoethyl ether (DGME) is about 20% as efficient at dissolving lemuteporfin as benzyl alcohol.

[3] = Solubility of lemuteporfin in the LTS formulation (stirred, sampled, filtered)
Experimental: LTS was prepared by adding lemuteporfin to the other components in Table 4 (already pre-mixed) at room temperature. The solution was stirred and samples were removed at various time points, and filtered to determine the amount of undissolved lemuteporfin. The amount of lemuteporfin that dissolved was approximately 0.048%.
Studies were conducted to determine the effect of certain of the LTS excipients on the solubility of lemuteporfin.

lemuteporfin
Precipitation after reconstitution [1]: has not precipitated out of solution
Efficiency of DGME at dissolving lemuteporfin relative to benzyl alcohol ([2]; DGME versus benzyl alcohol): about 20%
Solubility, % w/w Lemuteporfin ([2]; solvent % w/w: DGME 45, benzyl alcohol 45, oleyl alcohol 5, oleic acid 5): 1.373 % w/w
Solubility, % w/w Lemuteporfin ([2]; solvent % w/w: DGME 50, benzyl alcohol 15, oleic acid 35): 0.230 % w/w
Solubility, % w/w Lemuteporfin ([2]; solvent % w/w: DGME 50, benzyl alcohol 15, oleyl alcohol 35): 0.200 % w/w
Solubility, % w/w Lemuteporfin ([2]; solvent % w/w: DGME 50, benzyl alcohol 50): 1.57 % w/w
Solubility, % w/w Lemuteporfin ([2]; solvent % w/w: DGME 52, benzyl alcohol 16, oleyl alcohol 16, oleic acid 16): 0.210 % w/w
Solubility, % w/w Lemuteporfin ([2]; solvent % w/w: DGME 65, oleyl alcohol 17.5, oleic acid 17.5): 0.271 % w/w
Solubility, % w/w Lemuteporfin ([2]; solvent % w/w: DGME 65, oleyl alcohol 35): 0.430 % w/w
Solubility, % w/w Lemuteporfin ([2]; solvent % w/w: DGME 90, isopropyl myristate 10): 0.430 % w/w
Solubility, % w/w Lemuteporfin ([2]; solvent % w/w: DGME 90, oleyl alcohol 5, oleic acid 5): 0.420 % w/w
Solubility, % w/w Lemuteporfin ([2]; solvent % w/w: DGME 90, oleyl alcohol 10): 0.420 % w/w
Solubility, % w/w Lemuteporfin ([2]; solvent % w/w: benzyl alcohol 30, ethanol (190) 70): 0.455 % w/w
Solubility, % w/w Lemuteporfin ([2]; solvent % w/w: benzyl alcohol 30, oleyl alcohol 70): 0.166 % w/w
Solubility, % w/w Lemuteporfin ([2]; solvent % w/w: benzyl alcohol 40, isopropyl myristate 60): 0.090 % w/w
Solubility, % w/w Lemuteporfin ([2]; solvent % w/w: benzyl alcohol 50, ethanol (190) 50): 0.453 % w/w
Solubility, % w/w Lemuteporfin ([2]; solvent % w/w: benzyl alcohol 50, oleic acid 50): 0.409 % w/w
Solubility, % w/w Lemuteporfin ([2]; solvent % w/w: benzyl alcohol 50, oleyl alcohol 50): 0.228 % w/w
Solubility, % w/w Lemuteporfin ([2]; solvent % w/w: benzyl alcohol 50, propylene glycol 50): 0.494 % w/w
Solubility, % w/w Lemuteporfin ([2]; solvent % w/w: benzyl alcohol 90, isopropyl myristate 10): 2.30 % w/w
Solubility, % w/w Lemuteporfin ([2]; solvent % w/w: benzyl alcohol 90, oleic acid 10): 2.33 % w/w
Solubility, % w/w Lemuteporfin ([2]; solvent % w/w: benzyl alcohol 90, oleyl alcohol 5, oleic acid 5): 2.22 % w/w
Solubility, % w/w Lemuteporfin ([2]; solvent % w/w: benzyl alcohol 90, oleyl alcohol 10): 2.24 % w/w
Solubility, % w/w Lemuteporfin ([2]; solvent: benzyl alcohol 100 % w/w): 2.55 % w/w
Solubility of lemuteporfin in the LTS solution system ([3]; isopropyl alcohol removed (data not shown)): ~0.07 % w/w
Amount of lemuteporfin that dissolved in the Table 4 components ([3]; room temperature): approximately 0.048%
Lemuteporfin content (% w/w), dissolved in formulation of Table 4 ([3]; room temperature, time point 0.17 hours): 0.0241 % w/w
Lemuteporfin content (% w/w), dissolved in formulation of Table 4 ([3]; room temperature, time point 2.47 hours): 0.0482 % w/w
Lemuteporfin content (% w/w), dissolved in formulation of Table 4 ([3]; room temperature, time point 4.37 hours): 0.0453 % w/w
Lemuteporfin content (% w/w), dissolved in formulation of Table 4 ([3]; room temperature, time point 6.37 hours): 0.0463 % w/w
Lemuteporfin content (% w/w), dissolved in formulation of Table 4 ([3]; room temperature, time point 23.5 hours): 0.0370 % w/w
Solubility of lemuteporfin in the LTS solution system ([3]; with isopropyl alcohol (data not shown)): approximately 0.03 % w/w
Solubility of lemuteporfin in the LTS solution system ([3]; with polysorbate 80 (data not shown)): 0.037 % w/w
Solubility of lemuteporfin in the LTS solution system ([3]; without polysorbate 80 (data not shown)): 0.027 % w/w
